Series [1] addresses T1, Vasopressin V2 receptor (Homo sapiens, UniProt P30518). Nature of the series: Displacement of [3H]vasopressin from human vasopressin V2 receptor expressed in CHO cells. Type of series: cell-based. (In a radioligand displacement assay an active substance lowers the binding of a labelled ligand.)
Series [2] deals with T2, Vasopressin V1a receptor (Homo sapiens, UniProt P37288). Nature of the series: Displacement of [3H]vasopressin from human vasopressin V1a receptor expressed in CHO cells at 10 uM. The class given is cell-based.
Target sequence in this assay (P37288 whole entry): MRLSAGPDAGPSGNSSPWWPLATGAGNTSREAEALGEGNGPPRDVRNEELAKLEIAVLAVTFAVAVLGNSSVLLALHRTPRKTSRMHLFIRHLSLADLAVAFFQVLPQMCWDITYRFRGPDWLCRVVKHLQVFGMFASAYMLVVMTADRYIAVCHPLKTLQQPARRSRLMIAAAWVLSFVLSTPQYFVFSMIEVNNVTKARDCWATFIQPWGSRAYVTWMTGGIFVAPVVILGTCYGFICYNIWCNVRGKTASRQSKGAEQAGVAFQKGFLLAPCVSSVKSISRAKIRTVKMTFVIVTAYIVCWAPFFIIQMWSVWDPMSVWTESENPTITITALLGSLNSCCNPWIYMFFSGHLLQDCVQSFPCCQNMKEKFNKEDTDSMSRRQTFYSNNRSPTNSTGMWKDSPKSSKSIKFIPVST
The next series has as its target T3, Vasopressin V1b receptor (Homo sapiens, UniProt P47901).
T3 sequence (P47901 whole entry): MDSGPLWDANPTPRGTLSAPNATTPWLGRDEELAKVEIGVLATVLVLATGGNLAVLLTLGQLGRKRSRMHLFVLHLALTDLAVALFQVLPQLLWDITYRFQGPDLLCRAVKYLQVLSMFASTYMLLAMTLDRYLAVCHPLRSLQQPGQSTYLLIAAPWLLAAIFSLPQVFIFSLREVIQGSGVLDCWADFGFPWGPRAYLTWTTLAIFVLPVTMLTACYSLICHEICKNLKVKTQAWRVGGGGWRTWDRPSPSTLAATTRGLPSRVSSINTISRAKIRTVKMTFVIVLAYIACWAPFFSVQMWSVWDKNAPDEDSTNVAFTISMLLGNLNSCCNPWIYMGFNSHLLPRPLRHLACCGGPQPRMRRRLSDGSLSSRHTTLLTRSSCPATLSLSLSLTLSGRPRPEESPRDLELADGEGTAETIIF
In words: Displacement of [3H]vasopressin from human vasopressin V1b receptor expressed in CHO cells. The class given is cell-based.

Series [3] deals with T2, Vasopressin V1a receptor. In words: Displacement of [3H]vasopressin from human vasopressin V1a receptor expressed in CHO cells at 10 uM.
Target sequence in this assay (P37288 whole entry, looked up): as the sequence (P37288 whole entry) above
The species named for series [4] is Homo sapiens. In words: Selectivity ratio of Ki for human oxytocin receptor Ki for human vasopressin V1a receptor.
In series [5] the test system is Rattus norvegicus. Nature of the series: Inhibition of oxytocin-induced uterine contraction in iv dosed non-pregnant anaesthetized rat. The class given is functional.
The subject of series [6] is Rattus norvegicus. Nature of the series: Inhibition of oxytocin-induced uterine contraction in intraduodenally dosed rat. The class given is functional.
Series [7] has as its system Rattus norvegicus. In words: Inhibition of oxytocin-induced uterine contraction in iv dosed rat. The class given is functional.
A short description of series [8]: Oral bioavailability in rhesus monkey. The class given is ADME, organism-based, Macaca mulatta. Conditions: in vivo.
In series [9] the target is T4, Oxytocin receptor (Homo sapiens, UniProt P30559).
T4 sequence (P30559 whole entry): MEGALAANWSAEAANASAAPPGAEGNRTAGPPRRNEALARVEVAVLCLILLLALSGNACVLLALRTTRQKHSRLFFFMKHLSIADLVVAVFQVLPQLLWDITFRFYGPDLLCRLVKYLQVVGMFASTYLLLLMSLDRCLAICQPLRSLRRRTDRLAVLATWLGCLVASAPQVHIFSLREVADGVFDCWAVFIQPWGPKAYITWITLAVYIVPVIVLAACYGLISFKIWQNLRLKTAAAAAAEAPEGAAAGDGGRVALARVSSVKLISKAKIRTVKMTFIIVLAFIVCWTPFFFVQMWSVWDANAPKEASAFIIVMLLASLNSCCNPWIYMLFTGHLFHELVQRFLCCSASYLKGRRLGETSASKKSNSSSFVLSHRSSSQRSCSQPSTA
In words: Displacement of [3H]-oxytocin from oxytocin receptor in human uterus tissue. The class given is tissue-based.

For series [10], the species on record is Homo sapiens. In words: Selectivity ratio of Ki for human oxytocin receptor Ki for human vasopressin V2 receptor.
In series [11] the target is Vasopressin V1a receptor (Rattus norvegicus, UniProt P30560). Nature of the series: Displacement of [3H]vasopressin from vasopressin V1a receptor in rat liver tissue.
Vasopressin V1a receptor (Rattus norvegicus, UniProt P30560), sequence (P30560 whole entry): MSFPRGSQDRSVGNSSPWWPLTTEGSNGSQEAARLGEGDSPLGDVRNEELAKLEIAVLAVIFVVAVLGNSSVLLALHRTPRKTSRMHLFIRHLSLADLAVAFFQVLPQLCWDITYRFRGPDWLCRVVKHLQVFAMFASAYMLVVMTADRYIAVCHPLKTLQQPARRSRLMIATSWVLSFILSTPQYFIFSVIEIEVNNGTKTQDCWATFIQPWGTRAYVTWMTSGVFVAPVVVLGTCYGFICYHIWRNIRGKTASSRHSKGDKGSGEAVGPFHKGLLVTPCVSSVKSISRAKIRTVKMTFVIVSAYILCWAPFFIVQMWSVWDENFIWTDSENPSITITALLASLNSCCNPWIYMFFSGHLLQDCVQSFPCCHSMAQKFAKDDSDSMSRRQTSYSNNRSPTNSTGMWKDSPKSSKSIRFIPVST
Series [12] addresses Vasopressin V2 receptor (Rattus norvegicus, UniProt Q00788). Nature of the series: Displacement of [3H]vasopressin from vasopressin V2 receptor in rat kidney tissue.
A short description of series [13]: Aqueous solubility of the compound at pH 5.2. The class given is physicochemical. Conditions: buffer.
The target of series [14] is T2, Vasopressin V1a receptor. In words: Displacement of [3H]vasopressin from vasopressin V1a receptor in human liver tissue.
Target sequence in this assay (P37288 whole entry): as the sequence (P37288 whole entry) above
Series [15] addresses T5, Oxytocin receptor (Rattus norvegicus, UniProt P70536).
T5 sequence (P70536 whole entry): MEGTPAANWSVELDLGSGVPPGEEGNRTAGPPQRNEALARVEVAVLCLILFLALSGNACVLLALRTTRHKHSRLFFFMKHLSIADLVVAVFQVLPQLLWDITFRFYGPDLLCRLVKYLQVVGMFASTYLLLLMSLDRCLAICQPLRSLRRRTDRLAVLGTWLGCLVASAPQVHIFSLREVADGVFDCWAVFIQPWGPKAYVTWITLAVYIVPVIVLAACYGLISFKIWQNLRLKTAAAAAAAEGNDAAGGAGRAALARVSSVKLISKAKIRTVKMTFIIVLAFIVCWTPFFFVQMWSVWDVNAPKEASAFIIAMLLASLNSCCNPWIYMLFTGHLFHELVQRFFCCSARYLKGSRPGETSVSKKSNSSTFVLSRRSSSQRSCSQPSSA
In words: Displacement of [3H]-oxytocin from oxytocin receptor in rat uterus tissue. The class given is tissue-based.

Series [16] is described as follows: Oral bioavailability in rat. Conditions: in vivo. The class given is ADME, organism-based.
The target of series [17] is T1, Vasopressin V2 receptor. In words: Displacement of [3H]vasopressin from vasopressin V2 receptor in human kidney tissue.
The nature of series [18]: Oral bioavailability in chimpanzee. Conditions: in vivo. The class given is ADME, organism-based, Pan troglodytes.
The nature of series [19]: Oral bioavailability in human. Conditions: in vivo. The class given is ADME, organism-based.
A short description of series [20]: Oral bioavailability in dog. Type of series: ADME, organism-based, Canis lupus familiaris. Conditions: in vivo.
For series [21], the species on record is Homo sapiens. Nature of the series: Selectivity ratio of Ki for human oxytocin receptor Ki for human vasopressin V1b receptor.
Series [22] relates to Rattus norvegicus. Nature of the series: Inhibition of oxytocin-induced uterine contraction in long-term pregnant anaesthetized rat at 30 mg/kg, po. The class given is functional. Conditions: read-out: INH.
Series [23] relates to Rattus norvegicus. Nature of the series: Inhibition of oxytocin-induced uterine contraction in non-pregnant anaesthetized rat at 30 mg/kg, po. The class given is functional.
Series [24] in a line: Clearance in rat. Type of series: ADME, organism-based. Conditions: in vivo.
Series [25] is described as follows: Aqueous solubility of the compound at pH 5. The class given is physicochemical.
A short description of series [26]: Half life in rat. Conditions: in vivo. Type of series: ADME, organism-based.
Series [27] concerns the target T5, Oxytocin receptor. In words: Displacement of [3H]-oxytocin from rat oxytocin receptor expressed in HEK293-EBNA cells. The class given is cell-based.

Structures are written as SMILES. Values after ≈ are worked out from the molar mass of the structure shown. Where only a bound is given, the exact number is not on record here.

T1 sequence (P30518 whole entry): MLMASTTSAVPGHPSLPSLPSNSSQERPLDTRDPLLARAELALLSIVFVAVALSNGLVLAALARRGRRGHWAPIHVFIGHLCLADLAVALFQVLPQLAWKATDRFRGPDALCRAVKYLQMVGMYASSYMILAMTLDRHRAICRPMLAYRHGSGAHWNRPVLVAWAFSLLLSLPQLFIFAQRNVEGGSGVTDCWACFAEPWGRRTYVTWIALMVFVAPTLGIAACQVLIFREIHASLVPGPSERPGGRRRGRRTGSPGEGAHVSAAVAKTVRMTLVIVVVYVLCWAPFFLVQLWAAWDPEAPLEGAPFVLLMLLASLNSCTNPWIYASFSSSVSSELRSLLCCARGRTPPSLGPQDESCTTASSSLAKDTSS
Vasopressin V2 receptor (Rattus norvegicus, UniProt Q00788), sequence (Q00788 whole entry): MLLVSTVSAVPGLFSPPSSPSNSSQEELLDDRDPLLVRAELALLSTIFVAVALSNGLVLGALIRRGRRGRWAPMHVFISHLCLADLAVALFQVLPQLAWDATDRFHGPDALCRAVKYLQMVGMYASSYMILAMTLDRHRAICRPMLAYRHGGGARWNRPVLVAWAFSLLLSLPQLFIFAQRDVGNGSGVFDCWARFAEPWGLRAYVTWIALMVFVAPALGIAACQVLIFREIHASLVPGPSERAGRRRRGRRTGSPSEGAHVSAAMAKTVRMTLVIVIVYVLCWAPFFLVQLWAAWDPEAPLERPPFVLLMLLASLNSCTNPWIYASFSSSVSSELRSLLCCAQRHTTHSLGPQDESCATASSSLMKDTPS

A word on the Ki: it is the dissociation constant of the complex between target and ligand, obtained from inhibition or displacement. In the case of `CCOCc1nnc(-c2ccc(OCC)c(C)c2)n1-c1ccc(OC)nc1`, the results for the inhibition constant (Ki) on Vasopressin V2 receptor [1], on Vasopressin V1a receptor [2] and on Vasopressin V1b receptor were > 10000 nM, 549 nM and > 10000 nM, respectively.
A word on the inhibition: it is how much of the control response was suppressed. As for `O=C(CN(c1ccccc1)S(=O)(=O)c1ccccc1)N/N=C1\C(=O)Nc2ccccc21`, the inhibition on Vasopressin V1a receptor [3] was < 50%.
The term ED50 denotes the dose that gives a 50% effect, or the effect in half of the subjects. For `CCOc1ccc(S(=O)(=O)N(CC(=O)N/N=C2\C(=O)Nc3ccccc32)c2ccc(C)cc2)cc1`, the Ratio Ki in the series filed under Homo sapiens [4] stood at 100. The median effective dose (ED50) with Rattus norvegicus [5] was found to be 10 mg/kg.
As a reminder, the bioavailability is the share of a dose that reaches the circulation, judged against a reference dose that is usually intravenous. For the compound `COc1cc(OC2CCN(C(C)=O)CC2)ccc1C(=O)N1CCC(N2C(=O)OCc3ccccc32)CC1`, the results for the AD50 in the series on Rattus norvegicus [6] and in the series with Rattus norvegicus [7] were 2.5 mg/kg and 0.55 mg/kg, respectively. This compound also gave a bioavailability in [8] of 13%.
In the case of `COc1ccc(N(Cc2ccc(-c3ccccc3C)cn2)S(=O)(=O)c2cn(C)c(C)n2)cn1`, the Ki at Oxytocin receptor [9] was determined as 9.1 nM. The Ratio Ki in the series listed under Homo sapiens [10] amounted to 15700; in the series filed under Homo sapiens [4], 80.
For the compound `Cc1ccc(S(=O)(=O)N2CCC3(C=Cc4ccccc43)CC2)cc1`, the Ki on Oxytocin receptor [9] was 1000 nM; at Vasopressin V1a receptor [11], 9800 nM; at Vasopressin V2 receptor [12], > 40000 nM.
Regarding `Cc1ccccc1N1CCN(S(=O)(=O)C[C@]23CC[C@H](C[C@@H]2NC(=O)[C@@H](N)CCS(C)(=O)=O)C3(C)C)CC1`, in series [13], the solubility was found to be 2.5 mg/kg. In addition, the Ki at Vasopressin V1a receptor [14] was 180 nM; at Oxytocin receptor [15], 3.6 nM; at Oxytocin receptor [9], 13 nM; on Vasopressin V1a receptor [11] it was 110 nM; on Vasopressin V2 receptor [17], 590 nM; on Vasopressin V2 receptor [12], 200 nM. The bioavailability in [16] came to 35%; in series [18], 21%; in series [19], 20%; in series [20] it was 25%. Moreover, the Ratio Ki in the series filed under Homo sapiens [10] turned out to be 45; in the series listed under Homo sapiens [4], 14. In addition, the AD50 in the series with Rattus norvegicus [6] was found to be 7 mg/kg; in the series on Rattus norvegicus [7] it was 0.35 mg/kg.
On to `CC[C@H](C)[C@@H]1C(=O)N[C@H](C2Cc3ccccc3C2)C(=O)N1[C@@H](C(=O)N1CCOCC1)c1coc(C)n1` [RETOSIBAN], for which the bioavailability in [16] was found to be 100%.
As for `CN(C)CCCNC(=O)CCc1ccc(S(=O)(=O)N(CC(=O)N/N=C2\C(=O)Nc3ccccc32)c2ccc(Cl)cc2)cc1`, the Ratio Ki in the series listed under Homo sapiens [10] came out at 580; in the series filed under Homo sapiens [4], 60; in the series listed under Homo sapiens [21], 23000. For the same compound, the inhibition in vivo at 30 mg/kg with Rattus norvegicus [22] and in the series on Rattus norvegicus [23] was 35% throughout. On Vasopressin V1b receptor, this compound came in with a Ki of 377 nM. The compound further returned an ED50 with Rattus norvegicus [5] of 1.4 mg/kg.
Broadly, the clearance is a measure of how efficiently the substance is removed, as volume per time. By half-life is commonly meant how long it takes for the measured level to halve. Compound `COc1ccc(-n2c(C)nnc2-c2cnc(-c3ccc(F)cc3C)cn2)cn1` registered a clearance in [24] of 50 mL/min/kg. In series [25], this compound showed a solubility of 6 µg/mL (≈ 15.9 µM). In [26], this compound had a half-life of 1 h. Moreover, the Ki at Vasopressin V1b receptor is > 10000 nM.
For the compound `CCOc1ccc(S(=O)(=O)N(CC(=O)NN=C2C(=O)Nc3ccccc32)c2ccc(C)cc2)cc1`, in [25], the solubility was < 1 µg/mL. For the same compound, the Ki at Vasopressin V1b receptor came to 2500 nM; on Oxytocin receptor [27], 25 nM.

Source of the values: ChEMBL document CHEMBL1250454, “Oral oxytocin antagonists” (J Med Chem, 2010).
